Source: patent US20110065687A1, “HYDRAZIDE COMPOUNDS AND USES THEREOF” (priority 2007, published 2011)
pIC50: −log10 of the molar value.

What was measured:
Type in all cases: cell-based
[1] = system: rRNA synthesis from 45S rDNA; experiment: QPCR assay of rRNA synthesis; conditions: IC50 pertaining to rRNA synthesis, PCR with 5' ETS probe
Description: A representative assay for determining whether a compound modulates rRNA production is set forth hereafter. Assays were conducted to determine the effects of compounds on rRNA synthesis from 45S rDNA. Synthesized rRNA was quantified by a polymerase chain reaction (PCR) assay. A primer/probe set was designed using Primer Express software and synthesized by Applied Biosystems. The 5′ ETS Probe utilized had the following sequence (at its 3′ end): 6FAM-TTG ATC CTG CCA GTA GC-MGBNFQ. The primer sequences were as follows:
(§1) Step 1. Reverse transcription of RNA to DNA
(§2) Fluorescence of digested label was detected and quantified. The effect of the compounds on rRNA synthesis were assessed in the assay, and provided in the table hereafter are IC50 values of selected compounds pertaining to rRNA synthesis and cMYC RNA synthesis.

[2] = system: HCT-116 human colorectal carcinoma cells; experiment: Alamar Blue cell proliferation assay, HCT-116; conditions: 96 h, anti-proliferative effect, about four days with compound, HCT-116 cells, read-out: AB: HCT-116
Description: (§3) A representative cell-proliferation assay protocol using Alamar Blue dye (stored at 4° C., use 20 ul per well) is described hereafter.
(§4) a. Split and trypsinize cells.
(§5) b. Count cells using hemocytometer.
(§6) c. Plate 4,000-5,000 cells per well in 100 μl of medium and seed into a 96-well plate according to the following plate layout. Add cell culture medium only to wells B10 to B12. Wells B1 to B9 have cells but no compound added.
(§7) d. Add 100 μl of 2× drug dilution to each well in a concentration shown in the plate layout above. At the same time, add 100 μl of media into the control wells (wells B10 to B12). Total volume is 200 μl /well.
(§8) e. Incubate four (4) days at 37° C., 5% CO2 in a humidified incubator.
(§9) f. Add 20 μl Alamar Blue reagent to each well.
(§10) g. Incubate for four (4) hours at 37° C., 5% CO2 in a humidified incubator.
(§11) h. Record fluorescence at an excitation wavelength of 544 nm and emission wavelength of 590 nm using a microplate reader.
(§12) In the assays, cells are cultured with a test compound for approximately four days, the dye then is added to the cells and fluorescence of […] dye is detected after approximately four hours. Different types of cells can be utilized in the assays (e.g., HCT-116 human colorectal carcinoma cells, PC-3 human prostatic cancer cells and MiaPaca human pancreatic carcinoma cells). Anti-proliferative effects of representative compounds are provided in the Table below (i.e., “AB: HCT-116” and “AB: MiaPaCa” columns).

[3] = system: MiaPaca human pancreatic carcinoma cells; experiment: Alamar Blue cell proliferation assay, MiaPaCa; conditions: MIA PaCa-2, 96 h, anti-proliferative effect, about four days with compound, read-out: AB: MiaPaCa
Description: as §3, §4, §5, §6, §7, §8, §9, §10, §11, §12

[4] = system: C-myc transcription (cMYC RNA synthesis); experiment: QPCR control assay of C-myc transcription; conditions: IC50 pertaining to cMYC RNA synthesis
Description: A control assay that detected effects of the compounds on C-myc transcription also was conducted using a primer/probe set purchased from ABI (TaqMan Gene Expression Assay with assay ID: Hs99999003_m1). The following assay protocol was utilized:
as §1, §2

pIC50 [1]	pIC50 [2]	pIC50 [3]	pIC50 [4]	Compound
5.50	6.04	6.13		CN1CCN(NC(=O)c2c(=O)c3ccc(N4CCCCC4)nc3n3c2sc2ccccc23)CC1 [Cmpd 11]
5.65	6.16	5.09		O=C(NN1CCOCC1)c1c(=O)c2cc(F)c(N3CCOCC3)nc2n2c1sc1ccccc12 [Cmpd 14]
6.99	6.58	6.65	5.22	CN1CCN(NC(=O)c2c(=O)c3cc(F)c(N4CCOCC4)nc3n3c2sc2ccccc23)CC1 [Cmpd 3]
6.20	5.76	6.31		CN1CCN(NC(=O)c2c(=O)c3cc(F)c(NN4CCN(C)CC4)nc3n3c2sc2ccccc23)CC1 [Cmpd 5]
6.14	5.93	6.22		COC[C@H]1CCCN1NC(=O)c1c(=O)c2ccc(N3CCOCC3)nc2n2c1sc1ccccc12 [Cmpd 9]
6.34	≤ 4.30	≤ 4.30	4.63	O=C(NN1CCCCC1)c1c(=O)c2ccc(N3CCOCC3)nc2n2c1sc1ccccc12 [Cmpd 8]
	5.85			CN1CCN(NC(=O)c2c(=O)c3ccc(N4CCOCC4)nc3n3c2[nH]c2ccccc23)CC1 [Cmpd 24]
5.26	5.88	5.27		O=C(NNc1ccccn1)c1c(=O)c2cc(F)c(N3CCOCC3)nc2n2c1sc1ccccc12 [Cmpd 15]
5.01	5.15	≤ 4.30		CN1CCN(NC(=O)c2c(=O)c3ccc(-c4ccc(CO)cc4)nc3n3c2sc2ccccc23)CC1 [Cmpd 20]

Second part, the molecule before the results:

Compound	pIC50 [1]	pIC50 [2]	pIC50 [3]	pIC50 [4]
CN(C)NC(=O)c1c(=O)c2ccc(N3CCOCC3)nc2n2c1sc1ccccc12 [Cmpd 10]	6.38	6.28	6.35	5.05
CN1CCN(NC(=O)c2c(=O)c3ccc(NCCF)nc3n3c2sc2ccccc23)CC1 [Cmpd 12]	5.80	6.16	5.99	
CN1CCN(NC(=O)c2c(=O)c3cc(F)c(N(C)Cc4cnccn4)nc3n3c2sc2ccccc23)CC1 [Cmpd 4]	6.54	6.29	6.76	5.15
CN(C)NC(=O)c1c(=O)c2cc(F)c(N3CCOCC3)nc2n2c3ccccc3n(C)c12 [Cmpd 22]		5.85	5.66	
CN1CCN(NC(=O)c2c(=O)c3ccc(N4CCC(O)C4)nc3n3c2sc2ccccc23)CC1 (stereo not drawn) [Cmpd 13]	5.14	5.23	5.48	
O=C(NN1CCOCC1)c1c(=O)c2ccc(N3CCOCC3)nc2n2c1sc1ccccc12 [Cmpd 6]	6.15	6.25	6.26	
CN1CCN(NC(=O)c2c(=O)c3ccc(N4CCOCC4)nc3n3c2sc2ccccc23)CC1 [Cmpd 1]	6.83	7.02		5.92
CN1CCN(NC(=O)c2c(=O)c3ccc(N(C)Cc4cnccn4)nc3n3c2sc2ccccc23)CC1 [Cmpd 2]	6.16	6.60	5.83	
O=C(NNC1=NCCN1)c1c(=O)c2cc(F)c(N3CCOCC3)nc2n2c1sc1ccccc12 [Cmpd 17]	7.42	9.00	8.52	5.96
Cn1c2ccccc2n2c3nc(N4CCOCC4)c(F)cc3c(=O)c(C(=O)NN3CCOCC3)c12 [Cmpd 21]		6.18	5.89	
CN(C)NC(=O)c1c(=O)c2ccc(N3CCOCC3)nc2n2c1[nH]c1ccccc12 [Cmpd 23]		5.78		
COc1ccc(CNc2ccc3c(=O)c(C(=O)NN4CCN(C)CC4)c4sc5ccccc5n4c3n2)cc1 [Cmpd 18]	5.89	6.01	6.05	
O=C(Nn1cnnc1)c1c(=O)c2cc(F)c(N3CCOCC3)nc2n2c1sc1ccccc12 [Cmpd 16]	6.46	6.53	6.15	4.85
O=C(NN1CCCC1)c1c(=O)c2ccc(N3CCOCC3)nc2n2c1sc1ccccc12 [Cmpd 7]	6.15	6.19	6.02	
